In patent US8343696B2, “Colored curable composition, fluorine-containing dipyrromethene compound and tautomer thereof, and fluorine-containing dipyrromethene metal complex and tautomer thereof, and color filter using the same and method for producing the color filter” (FUJIFILM Corporation, priority 2008, dated 2013):

Columns and labels:
Type in all cases: physicochemical
[1] = Absorption spectrum in ethyl acetate solution (spectrophotometer UV-2400PC)
Protocol: In consideration of film thickness, the molar absorption coefficient of the specific metal complex compounds-1, -2, -3 and -4 of the invention is preferably as high as possible, and 60,000 or higher is preferable. The maximum absorption wavelength (λmax) thereof is preferably from 520 nm to 580 nm, and more preferably from 530 nm to 570 nm, in order to improve color purity. The maximum absorption wavelength and the molar absorption coefficient are determined by using a spectrophotometer UV-2400PC (manufactured by Shimadzu Corporation).
The molar absorption coefficient (ε) of each of the obtained compounds was measured in an ethyl acetate solution using a spectrophotometer (trade name: UV-2400PC; manufactured by Shimadzu Corporation). The absorbance (Abs) at 450 nm was evaluated by normalizing the absorbance at a maximum absorption wavelength (λmax) to 1.0. […] The measurement results of the absorbance (Abs value), maximum absorption wavelength (λmax), and molar absorption coefficient (ε) are shown in Table 1.
By the method similar to the reaction scheme in Synthesis Example 1 above, the exemplary compounds (dipyrromethene metal complex compounds or tautomers thereof) shown in Table 1 were synthesized. The identification of the compounds and the measurement of the maximum absorption wavelength (λmax) and the molar absorption coefficient (ε) of the compounds were performed similarly to Synthesis Example 1 above.

[2] = Storage stability of colored resist solution (precipitation after one month at room temperature); parameters: key: A: No precipitation was observed; B: Slight precipitation was observed; C: Precipitation was observed; conditions: negative-working colored resist solution, visual precipitation
From the text: 9.4 g of the resist solution obtained in section 1 above and 0.35 g of the exemplary compound Ia-12 synthesized above (a compound represented by Formula (4): dipyrromethene complex compound) were mixed and dissolved, whereby a colored resist solution (a negative-working ultraviolet-sensitive colored curable composition) was obtained.
The colored resist solution was stored for one month at room temperature, and then degree of precipitation was visually observed. The storage stability was evaluated according to the following criteria.
A: No precipitation was observed
B: Slight precipitation was observed
C: Precipitation was observed

[3] = Transmittance at 450 nm of the color filter; conditions: negative-working colored resist, 1.0 μm film; transmittance at λmax normalized to 2%
Protocol: The colored resist solution obtained in section 3 above was applied to an undercoat layer side of the glass substrate having an undercoat layer obtained in section 2 above by a spin coater such that a film thickness was 1.0 μm. Subsequently, the film was pre-baked at 100° C. for 120 sec, whereby a monochromatic color filter was obtained.
The transmission spectrum of the color filter obtained above was measured, and the transmittance at 450 nm was evaluated according to the following criteria. The transmittance of the color filter at 450 nm was evaluated by correcting (normalizing) the transmittance at the maximum absorption wavelength of the colorant included in the color filter to 2%. A larger transmittance indicates greater transmission of blue light, which indicates favorable magenta or violet color that can be used in a blue filter.
A: Transmittance at 450 nm was 90% or more
B: Transmittance at 450 nm was 80% or more but not more than 90%
C: Transmittance at 450 nm was not more than 80%

[4] = Heat resistance of coating film (color difference ΔEab before and after heating); conditions: 100° C. for 1 hour on hot plate
Protocol: A glass substrate having undercoat layer formed by applying the colored resin composition obtained in section 3 above was heat-treated at 100° C. for 1 hour using a hot plate, and the color difference (ΔEab) between before and after the heating was determined by using a […] MCPD-1000 (trade name, manufactured by Otsuka Electronics Co., Ltd.). The heat resistance was evaluated according to the following criteria. A smaller AEab value indicates better heat resistance.
(§1) A: ΔEab value was less than 6
(§2) B: ΔEab value was from 6 to 10
(§3) C: ΔEab value was more than 10

[5] = Light-fastness of coating film (color difference ΔEab before and after xenon lamp irradiation); conditions: xenon lamp 20,000 luxes for 10 hours (200,000 lux·h)
Protocol: A glass substrate having undercoat layer formed by applying the colored resin composition obtained in section 3 above was irradiated with a xenon lamp at an intensity of 20,000 luxes for 10 hours (equivalent to 200,000 lux·h), and the color difference ΔEab between before and after the irradiation was determined. The light-fastness was evaluated according to the following criteria. A smaller ΔEab value indicates better light-fastness.
as §1, §2, §3

CC1CC(C(C)(C)C)C(OC(=O)C2=C(c3ccccc3)C3=Cc4c(-c5ccccc5)c(C(=O)OC5C(C(C)(C)C)CC(C)CC5C(C)(C)C)c(NC(=O)c5ccc(OC(F)(F)F)cc5)[n]4[Zn-]([OH])[N+]3=C2NC(=O)c2ccc(OC(F)(F)F)cc2)C(C(C)(C)C)C1 (stereo not drawn) [IIb-8]
maximum absorption wavelength (λmax) [1]: 561 nm | molar absorption coefficient (ε) [1]: 92,600 | Abs value at 450 nm when normalized to Abs = 1.0 at λmax [1]: 0.0135 | Storage stability [2]: A | Transmittance at 450 nm [3]: A (Transmittance at 450 nm was 90% or more) | Heat resistance [4]: A (ΔEab value was less than 6) | Light-fastness [5]: A (ΔEab value was less than 6)

CC1CC(C(C)(C)C)C(OC(=O)c2c(-c3ccccc3)c3[n](c2NC(=O)c2cccc(F)c2C(=O)O)[Zn-]([OH])[N+]2=C(NC(=O)C(C)Sc4cc(C(=O)O)cc(C(=O)O)c4)C(C#N)=C(c4ccccc4)C2=C3)C(C(C)(C)C)C1 (stereo not drawn) [Ib-46]
maximum absorption wavelength (λmax) [1]: 560 nm | molar absorption coefficient (ε) [1]: 66,100 | Abs value at 450 nm when normalized to Abs = 1.0 at λmax [1]: 0.0186 | Storage stability [2]: B | Transmittance at 450 nm [3]: A (Transmittance at 450 nm was 90% or more) | Heat resistance [4]: A (ΔEab value was less than 6) | Light-fastness [5]: A (ΔEab value was less than 6)

CC1CC(C(C)(C)C)C(OC(=O)c2c(-c3ccccc3)c3[n](c2NC(=O)c2ccc(F)c(Br)c2)[Zn-]([OH])[N+]2=C(NC(=O)C(C)Sc4cc(C(=O)O)cc(C(=O)O)c4)C(C#N)=C(c4ccccc4)C2=C3)C(C(C)(C)C)C1 (stereo not drawn) [Ib-53]
maximum absorption wavelength (λmax) [1]: 563 nm | molar absorption coefficient (ε) [1]: 100,500 | Abs value at 450 nm when normalized to Abs = 1.0 at λmax [1]: 0.0082 | Storage stability [2]: A | Transmittance at 450 nm [3]: A (Transmittance at 450 nm was 90% or more) | Heat resistance [4]: A (ΔEab value was less than 6) | Light-fastness [5]: A (ΔEab value was less than 6)

CC1CC(C(C)(C)C)C(OC(=O)C2=C(c3ccccc3)C3=Cc4c(-c5ccccc5)c(C(=O)OC5C(C(C)(C)C)CC(C)CC5C(C)(C)C)c(NC(=O)c5cc(F)c(F)c(F)c5)[n]4[Zn-]([OH])[N+]3=C2NC(=O)c2cc(F)c(F)c(F)c2)C(C(C)(C)C)C1 (stereo not drawn) [IIb-32]
maximum absorption wavelength (λmax) [1]: 559 nm | molar absorption coefficient (ε) [1]: 91,400 | Abs value at 450 nm when normalized to Abs = 1.0 at λmax [1]: 0.0143 | Storage stability [2]: A | Transmittance at 450 nm [3]: A (Transmittance at 450 nm was 90% or more) | Heat resistance [4]: A (ΔEab value was less than 6) | Light-fastness [5]: A (ΔEab value was less than 6)

CC1CC(C(C)(C)C)C(OC(=O)c2c(-c3ccccc3)c(C=C3N=C(NC(=O)C(C)(C)C)C(C#N)=C3c3ccccc3)[n]([Zn][OH])c2NC(=O)c2c(F)c(F)c(C(=O)O)c(F)c2F)C(C(C)(C)C)C1 (stereo not drawn) [Ib-69]
maximum absorption wavelength (λmax) [1]: 557 nm | molar absorption coefficient (ε) [1]: 99,200 | Abs value at 450 nm when normalized to Abs = 1.0 at λmax [1]: 0.0111 | Storage stability [2]: A | Transmittance at 450 nm [3]: A (Transmittance at 450 nm was 90% or more) | Heat resistance [4]: A (ΔEab value was less than 6) | Light-fastness [5]: A (ΔEab value was less than 6)

CC1CC(C(C)(C)C)C(OC(=O)C2=C(c3ccccc3)C3=Cc4c(-c5ccccc5)c(C(=O)OC5C(C(C)(C)C)CC(C)CC5C(C)(C)C)c(NC(=O)c5ccc(C(F)(F)F)cc5)[n]4[Zn-]([OH])[N+]3=C2NC(=O)c2ccc(C(F)(F)F)cc2)C(C(C)(C)C)C1 (stereo not drawn) [IIb-7]
maximum absorption wavelength (λmax) [1]: 563 nm | molar absorption coefficient (ε) [1]: 97,100 | Abs value at 450 nm when normalized to Abs = 1.0 at λmax [1]: 0.0123 | Storage stability [2]: A | Transmittance at 450 nm [3]: A (Transmittance at 450 nm was 90% or more) | Heat resistance [4]: A (ΔEab value was less than 6) | Light-fastness [5]: A (ΔEab value was less than 6)

CC(=O)NC1=[N+]2C(=Cc3c(-c4ccccc4)c(C(=O)OC4C(C(C)(C)C)CC(C)CC4C(C)(C)C)c(NC(=O)c4cc(F)c(F)c(F)c4)[n]3[Zn-]2[OH])C(c2ccccc2)=C1C#N (stereo not drawn) [Ib-61]
maximum absorption wavelength (λmax) [1]: 558 nm | molar absorption coefficient (ε) [1]: 89,100 | Abs value at 450 nm when normalized to Abs = 1.0 at λmax [1]: 0.0101 | Storage stability [2]: A | Transmittance at 450 nm [3]: A (Transmittance at 450 nm was 90% or more) | Heat resistance [4]: A (ΔEab value was less than 6) | Light-fastness [5]: A (ΔEab value was less than 6)

CC1CC(C(C)(C)C)C(OC(=O)C2=C(c3ccccc3)C3=Cc4c(-c5ccccc5)c(C(=O)OC5C(C(C)(C)C)CC(C)CC5C(C)(C)C)c(NC(=O)c5cccc(C(F)(F)F)c5)[n]4[Zn-]([OH])[N+]3=C2NC(=O)c2cccc(C(F)(F)F)c2)C(C(C)(C)C)C1 (stereo not drawn) [IIb-6]
maximum absorption wavelength (λmax) [1]: 560 nm | molar absorption coefficient (ε) [1]: 114,000 | Abs value at 450 nm when normalized to Abs = 1.0 at λmax [1]: 0.0079 | Storage stability [2]: A | Transmittance at 450 nm [3]: A (Transmittance at 450 nm was 90% or more) | Heat resistance [4]: A (ΔEab value was less than 6) | Light-fastness [5]: A (ΔEab value was less than 6)

Cc1c(C(=O)OC2C(C(C)(C)C)CC(C)CC2C(C)(C)C)c(NC(=O)c2cc(F)cc(F)c2)[n]2c1C=C1C(c3ccccc3)=C(C#N)C(NC(=O)C(C)Sc3cc(C(=O)O)cc(C(=O)O)c3)=[N+]1[Zn-]2[OH] (stereo not drawn) [Ia-38]
maximum absorption wavelength (λmax) [1]: 558 nm | molar absorption coefficient (ε) [1]: 79,400 | Abs value at 450 nm when normalized to Abs = 1.0 at λmax [1]: 0.0191 | Storage stability [2]: A | Transmittance at 450 nm [3]: A (Transmittance at 450 nm was 90% or more) | Heat resistance [4]: A (ΔEab value was less than 6) | Light-fastness [5]: A (ΔEab value was less than 6)

CC1CC(C(C)(C)C)C(OC(=O)c2c(-c3ccccc3)c(C=C3N=C(NC(=O)C(C)SCCCS(=O)(=O)[O-])C(C#N)=C3c3ccccc3)[n]([Zn][OH])c2NC(=O)c2cc(F)cc(F)c2)C(C(C)(C)C)C1.[Na+] (stereo not drawn) [Ib-40]
maximum absorption wavelength (λmax) [1]: 562 nm | molar absorption coefficient (ε) [1]: 95,600 | Abs value at 450 nm when normalized to Abs = 1.0 at λmax [1]: 0.0082 | Storage stability [2]: A | Transmittance at 450 nm [3]: A (Transmittance at 450 nm was 90% or more) | Heat resistance [4]: B (ΔEab value was from 6 to 10) | Light-fastness [5]: B (ΔEab value was from 6 to 10)

CC1=C(C(=O)OC2C(C(C)(C)C)CC(C)CC2C(C)(C)C)C(NC(=O)c2ccc(F)c([N+](=O)[O-])c2)=[N+]2C1=Cc1c(C)c(C(=O)OC3C(C(C)(C)C)CC(C)CC3C(C)(C)C)c(NC(=O)c3ccc(F)c([N+](=O)[O-])c3)[n]1[Zn-]2[OH] (stereo not drawn) [IIa-25]
maximum absorption wavelength (λmax) [1]: 555 nm | molar absorption coefficient (ε) [1]: 126,900 | Abs value at 450 nm when normalized to Abs = 1.0 at λmax [1]: 0.0081 | Storage stability [2]: B | Transmittance at 450 nm [3]: A (Transmittance at 450 nm was 90% or more) | Heat resistance [4]: A (ΔEab value was less than 6) | Light-fastness [5]: A (ΔEab value was less than 6)

CC1CC(C(C)(C)C)C(OC(=O)c2c(-c3ccccc3)c3[n](c2NC(=O)c2cc(F)ccc2NS(C)(=O)=O)[Zn-]([OH])[N+]2=C(NC(=O)C(C)Sc4cc(C(=O)O)cc(C(=O)O)c4)C(C#N)=C(c4ccccc4)C2=C3)C(C(C)(C)C)C1 (stereo not drawn) [Ib-49]
maximum absorption wavelength (λmax) [1]: 566 nm | molar absorption coefficient (ε) [1]: 91,500 | Abs value at 450 nm when normalized to Abs = 1.0 at λmax [1]: 0.0116 | Storage stability [2]: B | Transmittance at 450 nm [3]: A (Transmittance at 450 nm was 90% or more) | Heat resistance [4]: A (ΔEab value was less than 6) | Light-fastness [5]: A (ΔEab value was less than 6)
